Test system: Amaranthus retoflexus (AMARE)
Assay: Herbicidal glasshouse test, pre-emergence, AMARE
Assay type: in vivo
Conditions: applied at 1000 g/h, evaluated after 13 days
Outline: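 Amaranthus retoflexus seeds were sown in pots of standard soil and kept one day in a glasshouse at 24/16° C. (day/night), 14 hours light and 65% humidity. They were then sprayed pre-emergence with the active ingredient in acetone/water (50:50) containing 0.5% Tween 20. Plants grew under the same conditions, watered twice daily, and percentage damage was scored after 13 days.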

SMILES	PRE Application AMARE, percentage damage (five point scale)
Cn1nnnc1NC(=O)c1nn(C)c(=O)n(-c2cc(F)cc(F)c2)c1=O [Compound 1.042]	5 (5=80-100%)
CSc1cccc(-n2c(=O)c(C(=O)Nc3nnnn3C)nn(C)c2=O)c1 [Compound 1.043]	5 (5=80-100%)
Cn1nnnc1NC(=O)c1nn(C)c(=O)n(-c2cc(F)c(F)c(F)c2)c1=O [Compound 1.044]	5 (5=80-100%)
COc1ccc(-n2c(=O)c(C(=O)Nc3nnnn3C)nn(C)c2=O)cc1Cl [Compound 1.045]	5 (5=80-100%)
CC(C)c1ccc(-n2c(=O)c(C(=O)Nc3nnnn3C)nn(C)c2=O)cc1 [Compound 1.046]	5 (5=80-100%)

Test system: Ipomoea hederacea (IPOHE)
Assay: Herbicidal glasshouse test, post-emergence, IPOHE
Assay type: in vivo
Conditions: applied at 1000 g/h, evaluated after 13 days

SMILES	POST Application IPOHE, percentage damage (five point scale)
Cn1nnnc1NC(=O)c1nn(C)c(=O)n(-c2cc(F)cc(F)c2)c1=O [Compound 1.042]	5 (5=80-100%)
CSc1cccc(-n2c(=O)c(C(=O)Nc3nnnn3C)nn(C)c2=O)c1 [Compound 1.043]	5 (5=80-100%)
Cn1nnnc1NC(=O)c1nn(C)c(=O)n(-c2cc(F)c(F)c(F)c2)c1=O [Compound 1.044]	5 (5=80-100%)
COc1ccc(-n2c(=O)c(C(=O)Nc3nnnn3C)nn(C)c2=O)cc1Cl [Compound 1.045]	5 (5=80-100%)
CC(C)c1ccc(-n2c(=O)c(C(=O)Nc3nnnn3C)nn(C)c2=O)cc1 [Compound 1.046]	5 (5=80-100%)

Test system: Alopecurus myosuroides (ALOMY)
Assay: Herbicidal glasshouse test, pre-emergence, ALOMY
Assay type: in vivo
Conditions: applied at 1000 g/h, evaluated after 13 days

SMILES	PRE Application ALOMY, percentage damage (five point scale)
Cn1nnnc1NC(=O)c1nn(C)c(=O)n(-c2cc(F)cc(F)c2)c1=O [Compound 1.042]	5 (5=80-100%)
CSc1cccc(-n2c(=O)c(C(=O)Nc3nnnn3C)nn(C)c2=O)c1 [Compound 1.043]	4 (4=60-79%)
Cn1nnnc1NC(=O)c1nn(C)c(=O)n(-c2cc(F)c(F)c(F)c2)c1=O [Compound 1.044]	5 (5=80-100%)
COc1ccc(-n2c(=O)c(C(=O)Nc3nnnn3C)nn(C)c2=O)cc1Cl [Compound 1.045]	5 (5=80-100%)
CC(C)c1ccc(-n2c(=O)c(C(=O)Nc3nnnn3C)nn(C)c2=O)cc1 [Compound 1.046]	5 (5=80-100%)

Test system: Setaria faberi (SETFA)
Assay: Herbicidal glasshouse test, pre-emergence, SETFA
Assay type: in vivo
Conditions: applied at 1000 g/h, evaluated after 13 days

SMILES	PRE Application SETFA, percentage damage (five point scale)
Cn1nnnc1NC(=O)c1nn(C)c(=O)n(-c2cc(F)cc(F)c2)c1=O [Compound 1.042]	5 (5=80-100%)
CSc1cccc(-n2c(=O)c(C(=O)Nc3nnnn3C)nn(C)c2=O)c1 [Compound 1.043]	2 (2=20-39%)
Cn1nnnc1NC(=O)c1nn(C)c(=O)n(-c2cc(F)c(F)c(F)c2)c1=O [Compound 1.044]	5 (5=80-100%)
COc1ccc(-n2c(=O)c(C(=O)Nc3nnnn3C)nn(C)c2=O)cc1Cl [Compound 1.045]	5 (5=80-100%)
CC(C)c1ccc(-n2c(=O)c(C(=O)Nc3nnnn3C)nn(C)c2=O)cc1 [Compound 1.046]	5 (5=80-100%)

Test system: Solanum nigrum (SOLNI)
Assay: Herbicidal glasshouse test, post-emergence, SOLNI
Assay type: in vivo
Conditions: applied at 1000 g/h, evaluated after 13 days

SMILES	POST Application SOLNI, percentage damage (five point scale)
Cn1nnnc1NC(=O)c1nn(C)c(=O)n(-c2cc(F)cc(F)c2)c1=O [Compound 1.042]	5 (5=80-100%)
CSc1cccc(-n2c(=O)c(C(=O)Nc3nnnn3C)nn(C)c2=O)c1 [Compound 1.043]	5 (5=80-100%)
Cn1nnnc1NC(=O)c1nn(C)c(=O)n(-c2cc(F)c(F)c(F)c2)c1=O [Compound 1.044]	5 (5=80-100%)
COc1ccc(-n2c(=O)c(C(=O)Nc3nnnn3C)nn(C)c2=O)cc1Cl [Compound 1.045]	5 (5=80-100%)
CC(C)c1ccc(-n2c(=O)c(C(=O)Nc3nnnn3C)nn(C)c2=O)cc1 [Compound 1.046]	5 (5=80-100%)

Test system: Alopecurus myosuroides (ALOMY)
Assay: Herbicidal glasshouse test, post-emergence, ALOMY
Assay type: in vivo
Conditions: applied at 1000 g/h, evaluated after 13 days

SMILES	POST Application ALOMY, percentage damage (five point scale)
Cn1nnnc1NC(=O)c1nn(C)c(=O)n(-c2cc(F)cc(F)c2)c1=O [Compound 1.042]	5 (5=80-100%)
CSc1cccc(-n2c(=O)c(C(=O)Nc3nnnn3C)nn(C)c2=O)c1 [Compound 1.043]	5 (5=80-100%)
Cn1nnnc1NC(=O)c1nn(C)c(=O)n(-c2cc(F)c(F)c(F)c2)c1=O [Compound 1.044]	5 (5=80-100%)
COc1ccc(-n2c(=O)c(C(=O)Nc3nnnn3C)nn(C)c2=O)cc1Cl [Compound 1.045]	5 (5=80-100%)
CC(C)c1ccc(-n2c(=O)c(C(=O)Nc3nnnn3C)nn(C)c2=O)cc1 [Compound 1.046]	5 (5=80-100%)

Test system: Solanum nigrum (SOLNI)
Assay: Herbicidal glasshouse test, pre-emergence, SOLNI
Assay type: in vivo
Conditions: applied at 1000 g/h, evaluated after 13 days
Outline: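 Seeds of Solanum nigrum were sown in pots of standard soil and kept one day in a glasshouse at 24/16° C. day/night, 14 hours light and 65% humidity. For the pre-emergence treatment they were then sprayed with an aqueous solution of the active ingredient formulated in acetone/water (50:50) containing 0.5% Tween 20. Plant damage was rated after 13 days.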

SMILES	PRE Application SOLNI, percentage damage (five point scale)
Cn1nnnc1NC(=O)c1nn(C)c(=O)n(-c2cc(F)cc(F)c2)c1=O [Compound 1.042]	5 (5=80-100%)
CSc1cccc(-n2c(=O)c(C(=O)Nc3nnnn3C)nn(C)c2=O)c1 [Compound 1.043]	5 (5=80-100%)
Cn1nnnc1NC(=O)c1nn(C)c(=O)n(-c2cc(F)c(F)c(F)c2)c1=O [Compound 1.044]	5 (5=80-100%)
COc1ccc(-n2c(=O)c(C(=O)Nc3nnnn3C)nn(C)c2=O)cc1Cl [Compound 1.045]	5 (5=80-100%)
CC(C)c1ccc(-n2c(=O)c(C(=O)Nc3nnnn3C)nn(C)c2=O)cc1 [Compound 1.046]	5 (5=80-100%)

Test system: Echinochloa crus-galli (ECHCG)
Assay: Herbicidal glasshouse test, post-emergence, ECHCG
Assay type: in vivo
Conditions: applied at 1000 g/h, evaluated after 13 days
Outline: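 Echinochloa crus-galli (ECHCG) seeds were sown in standard soil in pots and grown for 8 days in a glasshouse at 24/16° C. day/night, 14 hours light and 65% humidity. The young plants were then sprayed post-emergence with the active ingredient in acetone / water (50:50) containing 0.5% Tween 20. Damage was scored after 13 days.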

SMILES	POST Application ECHCG, percentage damage (five point scale)
Cn1nnnc1NC(=O)c1nn(C)c(=O)n(-c2cc(F)cc(F)c2)c1=O [Compound 1.042]	5 (5=80-100%)
CSc1cccc(-n2c(=O)c(C(=O)Nc3nnnn3C)nn(C)c2=O)c1 [Compound 1.043]	5 (5=80-100%)
Cn1nnnc1NC(=O)c1nn(C)c(=O)n(-c2cc(F)c(F)c(F)c2)c1=O [Compound 1.044]	5 (5=80-100%)
COc1ccc(-n2c(=O)c(C(=O)Nc3nnnn3C)nn(C)c2=O)cc1Cl [Compound 1.045]	5 (5=80-100%)
CC(C)c1ccc(-n2c(=O)c(C(=O)Nc3nnnn3C)nn(C)c2=O)cc1 [Compound 1.046]	5 (5=80-100%)

Test system: Echinochloa crus-galli (ECHCG)
Assay: Herbicidal glasshouse test, pre-emergence, ECHCG
Assay type: in vivo
Conditions: applied at 1000 g/h, evaluated after 13 days
Outline: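 Echinochloa crus-galli seeds were sown in standard soil in pots and grown for one day in a glasshouse at 24/16° C. day/night, 14 hours light and 65% humidity. Pre-emergence spraying used an aqueous solution of the active ingredient in acetone/water (50:50) with 0.5% Tween 20. Damage was scored after 13 days on a five point scale.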

SMILES	PRE Application ECHCG, percentage damage (five point scale)
Cn1nnnc1NC(=O)c1nn(C)c(=O)n(-c2cc(F)cc(F)c2)c1=O [Compound 1.042]	5 (5=80-100%)
CSc1cccc(-n2c(=O)c(C(=O)Nc3nnnn3C)nn(C)c2=O)c1 [Compound 1.043]	5 (5=80-100%)
Cn1nnnc1NC(=O)c1nn(C)c(=O)n(-c2cc(F)c(F)c(F)c2)c1=O [Compound 1.044]	5 (5=80-100%)
COc1ccc(-n2c(=O)c(C(=O)Nc3nnnn3C)nn(C)c2=O)cc1Cl [Compound 1.045]	5 (5=80-100%)
CC(C)c1ccc(-n2c(=O)c(C(=O)Nc3nnnn3C)nn(C)c2=O)cc1 [Compound 1.046]	5 (5=80-100%)

Test system: Amaranthus retoflexus (AMARE)
Assay: Herbicidal glasshouse test, post-emergence, AMARE
Assay type: in vivo
Conditions: applied at 1000 g/h, evaluated after 13 days
Outline: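 Amaranthus retoflexus (AMARE) seeds were sown in pots of standard soil and grown in a glasshouse at 24/16° C. day/night, 14 hours light and 65% humidity for 8 days. The plants were then sprayed post-emergence with an aqueous solution of the active ingredient in acetone/water (50:50) with 0.5% Tween 20. Damage was scored after 13 days.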

SMILES	POST Application AMARE, percentage damage (five point scale)
Cn1nnnc1NC(=O)c1nn(C)c(=O)n(-c2cc(F)cc(F)c2)c1=O [Compound 1.042]	5 (5=80-100%)
CSc1cccc(-n2c(=O)c(C(=O)Nc3nnnn3C)nn(C)c2=O)c1 [Compound 1.043]	5 (5=80-100%)
Cn1nnnc1NC(=O)c1nn(C)c(=O)n(-c2cc(F)c(F)c(F)c2)c1=O [Compound 1.044]	5 (5=80-100%)
COc1ccc(-n2c(=O)c(C(=O)Nc3nnnn3C)nn(C)c2=O)cc1Cl [Compound 1.045]	5 (5=80-100%)
CC(C)c1ccc(-n2c(=O)c(C(=O)Nc3nnnn3C)nn(C)c2=O)cc1 [Compound 1.046]	5 (5=80-100%)

Test system: Setaria faberi (SETFA)
Assay: Herbicidal glasshouse test, post-emergence, SETFA
Assay type: in vivo
Conditions: applied at 1000 g/h, evaluated after 13 days
Outline: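 Setaria faberi seeds were sown in standard soil in pots and grown for 8 days in a glasshouse at 24/16° C. day/night, 14 hours light and 65% humidity. The seedlings were then sprayed post-emergence with the active ingredient in acetone/water (50:50) containing 0.5% Tween 20. Afterwards they were kept under the same conditions, watered twice daily, and scored for percentage damage on a five point scale.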

SMILES	POST Application SETFA, percentage damage (five point scale)
Cn1nnnc1NC(=O)c1nn(C)c(=O)n(-c2cc(F)cc(F)c2)c1=O [Compound 1.042]	5 (5=80-100%)
CSc1cccc(-n2c(=O)c(C(=O)Nc3nnnn3C)nn(C)c2=O)c1 [Compound 1.043]	4 (4=60-79%)
Cn1nnnc1NC(=O)c1nn(C)c(=O)n(-c2cc(F)c(F)c(F)c2)c1=O [Compound 1.044]	5 (5=80-100%)
COc1ccc(-n2c(=O)c(C(=O)Nc3nnnn3C)nn(C)c2=O)cc1Cl [Compound 1.045]	5 (5=80-100%)
CC(C)c1ccc(-n2c(=O)c(C(=O)Nc3nnnn3C)nn(C)c2=O)cc1 [Compound 1.046]	5 (5=80-100%)

Test system: Ipomoea hederacea (IPOHE)
Assay: Herbicidal glasshouse test, pre-emergence, IPOHE
Assay type: in vivo
Conditions: applied at 1000 g/h, evaluated after 13 days

SMILES	PRE Application IPOHE, percentage damage (five point scale)
Cn1nnnc1NC(=O)c1nn(C)c(=O)n(-c2cc(F)cc(F)c2)c1=O [Compound 1.042]	5 (5=80-100%)
CSc1cccc(-n2c(=O)c(C(=O)Nc3nnnn3C)nn(C)c2=O)c1 [Compound 1.043]	5 (5=80-100%)
Cn1nnnc1NC(=O)c1nn(C)c(=O)n(-c2cc(F)c(F)c(F)c2)c1=O [Compound 1.044]	5 (5=80-100%)
COc1ccc(-n2c(=O)c(C(=O)Nc3nnnn3C)nn(C)c2=O)cc1Cl [Compound 1.045]	5 (5=80-100%)
CC(C)c1ccc(-n2c(=O)c(C(=O)Nc3nnnn3C)nn(C)c2=O)cc1 [Compound 1.046]	5 (5=80-100%)

Reference: US20160009693A1, “HERBICIDAL COMPOUNDS” (SYNGENTA LIMITED, priority 2013, published 2016)
